Read-outs that look alike come from different tables or passages of the source.
Experiments:
[1] = target: T1, insulin aspart (Asp^B28 human insulin) (Homo sapiens, UniProt P01308, P52D); conditions: pH 7.4
Experimental: Compositions comprising the buffer components covered by the present invention were prepared according to the above-mentioned and a reference composition containing 7 mM sodium phosphate as buffer component was prepared in parallel.

[2] = target: human insulin (Homo sapiens, UniProt P01308)
[3] = target: T1, insulin aspart (Asp^B28 human insulin); assay: Chemical stability of the polypeptide, degradation products formed during storage; conditions: insulin aspart compositions, 1-100 mM buffer; 3 months storage at 5° C. or 37° C.; data not shown
[4] = target: T1, insulin aspart (Asp^B28 human insulin)
[5] = insulin aspart 600 nmol/mL, 1-100 mM buffer, 37° C., shake 1200 rpm, n=12
[6] = human insulin, 6.7 mM buffer, n=12

human insulin, sequence (P01308 25-54 limits assumed): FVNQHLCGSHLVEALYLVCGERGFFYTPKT
human insulin, sequence (P01308 90-110 limits assumed): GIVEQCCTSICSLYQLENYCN
T1 sequence (P01308 25-54 P52D): as the sequence (P01308 25-54 limits assumed) above, with P28D counted along it

Row | SMILES | polypeptide stability (physical stability, ThT lag-time) compared to compositions comprising phosphate buffer (7 mM) [1, 5] | polypeptide stability (physical stability, ThT lag-time) compared to compositions comprising phosphate buffer [2, 6] | impact on chemical stability of the polypeptide (amount of degradation products formed) [3] | impact on chemical stability of the polypeptide (amount of degradation products formed) [4] | polypeptide stability (physical stability, ThT lag-time) compared to compositions comprising phosphate buffer (7 mM) [1] | polypeptide stability (physical stability, ThT lag-time) compared to compositions comprising phosphate buffer [2]
1 | CC(N)(CO)CO [AMPD, 2-amino-2-methyl-1,3-propanediol] | increased | increased | No significant impact |  |  | 
2 | CC[N+](CC)(CC)CC.[Cl-] [T.E.A. chloride, tetraethylammonium chloride] | increased | increased |  | No significant impact |  | 
3 | CCC(CC)(C(=O)O)C(=O)O [diethylmalonic acid, diethylpropanedioic acid] | increased | increased | No significant impact |  |  | 
4 | Cl.NCC(N)=O [glycinamid hydrochloride] |  |  | No significant impact |  | increased | increased
5 | O=C(O)c1ccc(C(=O)O)c(C(=O)O)c1 [trimellitic acid, 1,2,4-benzenetricarboxylic acid] | increased | increased | No significant impact |  |  | 

— patent US20090060861A1, “Stabilized Polypeptide Formulations” (NOVO Nordisk A/S, priority 2005, published 2009)
